Each structure is given as a SMILES string. The source made the active and inactive calls.

A short description of data set [1]: Metabolic stability in rat liver microsomes assessed as intrinsic clearance measured up to 60 mins in presence of NADPH by LC-MS/MS analysis. It is filed as ADME, Microsome. The conditions noted are these: read-out: CLH. On the technique in general: Liver microsomes are vesicles of endoplasmic reticulum, rich in cytochrome P450 enzymes.
The test system of data set [2] is MV4-11. Description: Induction of apoptosis in human MV4-11 cells assessed as necrotic cells at 4 micromol/L measured after 48 hrs by Annexin V-FITC/PI double staining based flow cytometry analysis (reference value: 1.16 %). Type of data set: functional. The conditions noted are these: dose 4 µmol/L, at 4 µM. For orientation: In flow cytometry, cells or beads pass a laser one at a time.

Data set [3] can be described thus: Octanol-water partition coefficient, logP of the compound. Type of data set: physicochemical.
Data set [4] can be described thus: Half life in male Sprague-Dawley rat at 10 mg/kg, po measured up to 24 hrs by LC-MS/MS analysis. It is filed as ADME, organism-based. Conditions: in vivo.
A short description of data set [5]: AUC (0 to t) in male Sprague-Dawley rat at 1 mg/kg, iv measured up to 24 hrs by LC-MS/MS analysis. It is filed as ADME, organism-based. Conditions: in vivo.
Data set [6] in a line: AUC (0 to infinity) in male Sprague-Dawley rat at 10 mg/kg, po measured up to 24 hrs by LC-MS/MS analysis. Type of data set: ADME, organism-based. Conditions: in vivo.
The test system of data set [7] is MV4-11. Description: Induction of apoptosis in human MV4-11 cells assessed as early apoptotic cells at 4 micromol/L measured after 48 hrs by Annexin V-FITC/PI double staining based flow cytometry analysis (reference value: 2.01 %). It is filed as functional. The conditions noted are these: dose 4 µmol/L, at 4 µM.
Data set [8] concerns the target T1, Lysine-specific histone demethylase 1A (Homo sapiens, UniProt O60341). Description: Inhibition of LSD1 in human MV4-11 cells assessed as increase in H3K4me1 expression level at 2 to 4 micromol/L measured after 48 hrs by Western blot analysis. The conditions noted are these: dose 2-4 µmol/L. Type of data set: cell-based.
A short description of data set [9]: Upregulation of CD86 expression in human MV4-11 cells at 4 micromol/L incubated for 48 hrs by flow cytometry analysis relative to control. Type of data set: functional. Conditions: dose 4 µmol/L, at 4 µM.
Data set [10] deals with MV4-11. The data set is described as follows: Induction of apoptosis in human MV4-11 cells assessed as viable cells at 2 micromol/L measured after 48 hrs by Annexin V-FITC/PI double staining based flow cytometry analysis (reference value: 89.13%). It is filed as functional. Conditions: MV4-11, 48 h, dose 2 µmol/L, read-out: Activity.
Data set [11] deals with T2, Amine oxidase [flavin-containing] A (Homo sapiens, UniProt P21397).
T2 sequence (P21397 whole entry): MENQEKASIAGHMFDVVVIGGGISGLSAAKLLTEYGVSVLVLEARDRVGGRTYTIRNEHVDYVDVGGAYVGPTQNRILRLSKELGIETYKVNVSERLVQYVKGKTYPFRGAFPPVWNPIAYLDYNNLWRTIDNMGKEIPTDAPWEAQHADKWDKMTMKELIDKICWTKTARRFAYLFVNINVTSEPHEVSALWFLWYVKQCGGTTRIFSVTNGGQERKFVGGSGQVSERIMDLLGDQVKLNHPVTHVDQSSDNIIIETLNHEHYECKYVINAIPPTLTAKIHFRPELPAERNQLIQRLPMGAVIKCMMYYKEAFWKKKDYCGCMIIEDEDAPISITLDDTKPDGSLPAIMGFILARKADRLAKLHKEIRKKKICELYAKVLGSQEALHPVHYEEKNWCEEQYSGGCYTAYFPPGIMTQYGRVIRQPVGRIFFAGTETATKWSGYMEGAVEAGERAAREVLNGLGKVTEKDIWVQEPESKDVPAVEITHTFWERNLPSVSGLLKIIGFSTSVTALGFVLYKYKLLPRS
The data set is described as follows: Inhibition of human N-terminal Flag-tagged MAOA extracted baculovirus infected in Sf9 cells measured after 0.5 hrs by MAO-Glo Assay.

Data set [12] concerns the target T1, Lysine-specific histone demethylase 1A. The data set is described as follows: Inhibition of LSD1 in human MV4-11 cells assessed as increase in LSD1 protein level at 2 to 4 micromol/L measured after 48 hrs by Western blot analysis. Conditions: dose 2-4 µmol/L. It is filed as cell-based.
For data set [13], the system named is MV4-11. Description: Induction of apoptosis in human MV4-11 cells assessed as early apoptotic cells at 3 micromol/L measured after 48 hrs by Annexin V-FITC/PI double staining based flow cytometry analysis (reference value: 2.01 %). Type of data set: functional. The conditions noted are these: dose 3 µmol/L, at 3 µM.
Data set [14] relates to MV4-11. The data set is described as follows: Induction of apoptosis in human MV4-11 cells assessed as increase in cleaved caspase-3 level at 2 to 4 micromol/L measured after 72 hrs by Western blot analysis. It is filed as functional, cell-based. Conditions: dose 2-4 µmol/L. In general terms: A western blot detects proteins with antibodies after separation by electrophoresis.

The nature of data set [15]: Metabolic stability in human liver microsomes assessed as half life measured up to 60 mins in presence of NADPH by LC-MS/MS analysis. Type of data set: ADME, Microsome.
Data set [16] has as its system MV4-11. Description: Induction of apoptosis in human MV4-11 cells assessed as increase in late apoptosis measured after 48 hrs by Annexin V-FITC/PI double staining based flow cytometry analysis. Type of data set: functional, cell-based. Conditions: dose 2-4 µmol/L.
For data set [17], the system named is MV4-11. The data set is described as follows: Induction of apoptosis in human MV4-11 cells assessed as late apoptotic cells at 2 micromol/L measured after 48 hrs by Annexin V-FITC/PI double staining based flow cytometry analysis (reference value: 7.70 %). Conditions: dose 2 µmol/L, at 2 µM. It is filed as functional.
For data set [18], the system named is MV4-11. Description: Induction of apoptosis in human MV4-11 cells assessed as viable cells at 4 micromol/L measured after 48 hrs by Annexin V-FITC/PI double staining based flow cytometry analysis (reference value: 89.13%). It is filed as functional. The conditions noted are these: MV4-11, 48 h, dose 4 µmol/L, read-out: Activity.

By logP is commonly meant a log measure of how a compound divides between an organic and an aqueous phase. Low values mean a more hydrophilic compound, high ones a more lipophilic compound. The half-life is the time needed for the level to fall by half in the phase considered. Broadly, the AUC(0-t) is the area under the concentration-time curve up to a stated or last time point. The low end stands for less exposure, the high end for more exposure. In general, AUC(0-inf) refers to total exposure, with the tail of the curve extrapolated. Read a low AUC(0-inf) as low exposure. The IC50 is the concentration that gives 50% inhibition. As for `Cl.O=S(=O)(c1ccccc1)n1ncc2cc(-n3cc(CN[C@@H]4C[C@H]4c4ccc(F)c(F)c4)nn3)ccc21`, the CLint scaled in [1] was 352 mL/min/kg. In addition, the Activity in the data set with MV4-11 [2] is 2.91%; in the data set on MV4-11 [7], 4.28%; in data set [9], 33.76%; with MV4-11 [13] it was 3.18%; with MV4-11 [16], “Dose-dependent-effect”; in the data set on MV4-11 [17], 13.76%. The molecule also registered a logP in [3] of 4.2. The half-life in data set [4] was 86.4 min; in data set [15], 11.6 min. In [5], this molecule came in with an AUC(0-t) at 24 h of 481 ng·h/mL. Further, in data set [6], the area under the curve AUC(0-inf) was found to be 290 ng·h/mL. In addition, the inhibition result in data set [8] and in data set [12] was “Active” each time. In addition, the viability at 2 µM in the data set on MV4-11 [10] is 80.4%. The molecule further returned an IC50 in [11] of 840 nM. In the data set with MV4-11 [14], the outcome was Active. In addition, in the data set on MV4-11 [18], the viability at 4 µM was determined as 77.4%.

These data come from ChEMBL document CHEMBL6134819, “Discovery of novel tranylcypromine-indazole-based derivatives as LSD1 inhibitors for acute myeloid leukemia treatment” (Eur J Med Chem, 2025).
